The values that follow come from ChEMBL document CHEMBL3045938, “Methionine-induced phytoalexin production in rice leaves” (2000).

Calls of active or inactive are those of the source. The rule behind the calls is not given here.

Holding throughout (type): functional, organism-based
Test [1] deals with Oryza sativa. As to the kind of experiment: Induction of disease resistance in Oryza sativa Nipponbare (rice) assessed as increase in momilactone level in press-injured leaves at 10 mM after 48 hr by HPLC-MS-MS analysis.
Test [2] has as its system Oryza sativa. As to the kind of experiment: Induction of disease resistance in Oryza sativa Nipponbare (rice) assessed as increase in sakuranetin level in press-injured leaves at 10 mM after 48 hr by HPLC-MS-MS analysis.
The test system of test [3] is Oryza sativa. As to the kind of experiment: Induction of disease resistance in Oryza sativa Nipponbare (rice) assessed as increase in sakuranetin level in press-injured leaves at 0.1% after 48 hr by HPLC-MS-MS analysis.
For test [4], the system named is Oryza sativa. In words: Induction of disease resistance in Oryza sativa Nipponbare (rice) assessed as increase in jasmonic acid level in press-injured leaves at 0.5 mM pretreated with water 24 hr prior to compound treatment measured after 6 hr by HPLC-MS-MS analysis relative to control.
Test [5] has as its system Oryza sativa. In words: Induction of disease resistance in Oryza sativa Nipponbare (rice) assessed as increase in jasmonic acid level in press-injured leaves at 0.5 mM after 1 to 2 hr by HPLC-MS-MS analysis relative to control.
In test [6] the test system is Oryza sativa. As to the kind of experiment: Induction of disease resistance in Oryza sativa Nipponbare (rice) assessed as increase in momilactone level in uninjured leaves at 0.5 mM pretreated with water 24 hr prior to compound treatment measured after 8 to 10 hr by HPLC-MS-MS analysis relative to control.
For test [7], the system named is Oryza sativa. In words: Induction of disease resistance in Oryza sativa Nipponbare (rice) assessed as increase in sakuranetin level in uninjured leaves at 0.5 mM pretreated with water 24 hr prior to compound treatment measured after 8 to 10 hr by HPLC-MS-MS analysis relative to control.
The test system of test [8] is Oryza sativa. As to the kind of experiment: Induction of disease resistance in Oryza sativa Nipponbare (rice) assessed as increase in momilactone level in press-injured leaves at 0.5 mM pretreated with water 24 hr prior to compound treatment measured after 8 to 10 hr by HPLC-MS-MS analysis relative to control.
Test [9] relates to Oryza sativa. As to the kind of experiment: Induction of disease resistance in Oryza sativa Nipponbare (rice) assessed as increase in sakuranetin level in press-injured leaves at 0.5 mM pretreated with water 24 hr prior to compound treatment measured after 8 to 10 hr by HPLC-MS-MS analysis relative to control.

Consider `O=P(O)(O)CCCl`, for which the result in [1] was inactive. Further, the result in [2] was Active.
`C[S+](CC[C@H](N)C(=O)[O-])C[C@H]1O[C@@H](n2cnc3c(N)ncnc32)[C@H](O)[C@@H]1O` (stereo not given in full): the result in test [3] was inactive.
Take CUPRIC CHLORIDE: the result in test [4], in [8] and in test [9] was Active. For the same compound, the outcome in test [5], in test [6] and in test [7] was inactive.
On to `N[C@@H](Cc1ccccc1)C(=O)O`, for which the result in [3] was inactive.
